Data taken from patent US20260297121A1, “MITHRAMYCIN (MTM) 2’ OXIMES” (University of Kentucky Research Foundation, priority 2023, published 2026).
Read-outs that look alike come from different tables or passages of the source.

Assays:
log P = assay type: physicochemical; details: Table 2
TC32 cells = experiment: Potency IC50 in TC32 cells and selectivity; assay type: cell-based; details: Homo sapiens, TC-32, Table 2, read-out: IC50 TC32
PC3 [1] = experiment: IC50 in PC3 cells; assay type: cell-based; details: Homo sapiens, PC-3, read-out: IC50 PC2, Table 2; head prints PC2, text PC3
TC32 = experiment: Cytotoxicity, resazurin fluorescence, TC32; assay type: cell-based
Method: (§1) Exemplary compounds of the presently-disclosed subject matter were assessed for cytotoxicity (Table 5) in Ewing sarcoma (TC32) and non-Ewing (PC3 prostate cancer). […] Cells (1000-5000/well) were seeded in 96-well plates and allowed to attach and grow for 24 hr prior to adding compounds in half-log increments from 0.3 nM-10 μM. Cell viability was assessed after 72 hr continuous incubation with compounds using resazurin fluorescence. GI50 values were estimated using GraphPad Prism.

PC3 [2] = experiment: Cytotoxicity, resazurin fluorescence, PC3; assay type: cell-based
Method: as §1

TC71 = experiment: Cytotoxicity, resazurin fluorescence, TC71; assay type: cell-based; details: Table 6, 72 hr, EWS cells
5838 = experiment: Cytotoxicity, resazurin fluorescence, 5838; assay type: cell-based; details: Table 6; 72 hr; express EWS-ERG
A673 = experiment: Cytotoxicity, resazurin fluorescence, A673; assay type: cell-based; details: Table 6, 72 hr, EWS cells
RDES = experiment: Cytotoxicity, resazurin fluorescence, RDES; assay type: cell-based; details: Table 6, 72 hr, EWS cells
SK.ES1 = experiment: Cytotoxicity, resazurin fluorescence, SK.ES1; assay type: cell-based; details: Table 6, 72 hr, EWS cells
ES3 = experiment: Cytotoxicity, resazurin fluorescence, ES3; assay type: cell-based; details: Table 6; 72 hr; EWS cells
ES4 = experiment: Cytotoxicity, resazurin fluorescence, ES4; assay type: cell-based; details: Table 6; 72 hr; EWS cells
ES7 = experiment: Cytotoxicity, resazurin fluorescence, ES7; assay type: cell-based; details: Table 6, 72 hr, EWS cells
ES8 = experiment: Cytotoxicity, resazurin fluorescence, ES8; assay type: cell-based; details: Table 6, 72 hr, EWS cells
EWS cells = experiment: Cytotoxicity, average over Ewing (EWS) cell panel; assay type: cell-based; details: Table 6; 72 hr; average of EWS cells
Method: as §1

BL1395 = experiment: Cytotoxicity, resazurin fluorescence, BL1395; assay type: cell-based; details: read-out: GI50 BL1395
A549 = experiment: Cytotoxicity, resazurin fluorescence, A549; assay type: cell-based; details: read-out: GI50 A549
DU145 = experiment: Cytotoxicity, resazurin fluorescence, DU145; assay type: cell-based; details: read-out: GI50 DU145
H460 = experiment: Cytotoxicity, resazurin fluorescence, H460; assay type: cell-based; details: read-out: GI50 H460
Hela = experiment: Cytotoxicity, resazurin fluorescence, Hela; assay type: cell-based; details: read-out: GI50 Hela
HepG2 = experiment: Cytotoxicity, resazurin fluorescence, HepG2; assay type: cell-based; details: read-out: GI50 HepG2
LNCap = experiment: Cytotoxicity, resazurin fluorescence, LNCap; assay type: cell-based; details: read-out: GI50 LNCap
PANC1 = experiment: Cytotoxicity, resazurin fluorescence, PANC1; assay type: cell-based; details: read-out: GI50 PANC1
Non EWS cells = experiment: Cytotoxicity, average over non-Ewing cell panel; assay type: cell-based; details: read-out: GI50 Average, Non EWS cells
Method: as §1

HS68 = experiment: Cytotoxicity, 72 hr resazurin assay, HS68 fibroblast; assay type: cell-based
Description: (§2) A fibroblast cell line (HS68 (FIG. 2E)) was used as a non-tumor control. The area under the concentration-efficacy curve (AUC; possible range of 0-20000) was used to estimate an alternate metric to GI50 for cases of shallow efficacy (e.g., the limited effect in HS68 cells).

JR1 = experiment: Cytotoxicity, 72 hr resazurin assay, JR1 embryonal rhabdomyosarcoma; assay type: cell-based
Description: as §2

RD = experiment: Cytotoxicity, 72 hr resazurin assay, RD embryonal rhabdomyosarcoma; assay type: cell-based
Description: as §2

RH30 = experiment: Cytotoxicity, 72 hr resazurin assay, RH30 alveolar rhabdomyosarcoma; assay type: cell-based
Description: as §2

RH41 = experiment: Cytotoxicity, 72 hr resazurin assay, RH41 alveolar rhabdomyosarcoma; assay type: cell-based
Description: as §2

rhabdomyosarcoma cells = experiment: Cytotoxicity, 72 hr resazurin assay, four rhabdomyosarcoma cell lines; assay type: cell-based; details: JR1, RD, RH30, RH41, read-out: GI50 range in the four cell lines tested
Description: as §2

EWS-FLI1 = details: screen of more than 50,000 natural products and synthetic compounds; cited from earlier work
[3] = cited from earlier work
[4] = area under concentration-efficacy curve, possible range 0-20000

COC(C(=NOCCNC(=O)c1[nH]c2ccc(Cl)cc2c1-c1c(C)noc1C)C(O)C(C)O)C1Cc2cc3cc(OC4CC(OC5CC(O)C(O)C(C)O5)C(O)C(C)O4)c(C)c(O)c3c(O)c2C(=O)C1OC1CC(OC2CC(OC3CC(C)(O)C(O)C(C)O3)C(O)C(C)O2)C(O)C(C)O1 (stereo not drawn) [YL-C110]
logP (log P): 2.56
IC50 (TC32 cells): 2.18 nM
IC50 (PC3 [1]): 7.1 nM
GI50 (TC32; Homo sapiens, TC-32, 72 h, read-out: GI50 TC32, Table 5): 14 nM
GI50 (TC32; Homo sapiens, TC-32, 72 h, read-out: GI50 TC32, Table 6, EWS cells): 14.3 nM
GI50 (PC3 [2]; Homo sapiens, PC-3, 72 h, read-out: GI50 PC3, Table 5): 27 nM
GI50 (PC3 [2]; Homo sapiens, PC-3, 72 h, read-out: GI50 PC3, Table 6, non EWS cells): 26.8 nM
GI50 (TC71; Homo sapiens, TC-71): 10.7 nM
GI50 5838: 26.6 nM
GI50 (A673; Homo sapiens, A673): 33.5 nM
GI50 (RDES; RD-ES): 13.3 nM
GI50 (SK.ES1; Homo sapiens, SK-ES1): 18.8 nM
GI50 (ES3): 18.8 nM
GI50 (ES4): 10.1 nM
GI50 (ES7; Homo sapiens, ES7): 13.6 nM
GI50 (ES8; Homo sapiens, ES8): 16.6 nM
GI50 (EWS cells): 17.6 nM
GI50 (BL1395; Lymphocyte, 72 h): 49.4 nM
GI50 (A549; Homo sapiens, A549, 72 h): 46.7 nM
GI50 (DU145; Homo sapiens, DU-145, 72 h): 16.2 nM
GI50 (H460; Homo sapiens, NCI-H460, 72 h): 33.2 nM
GI50 (Hela; Homo sapiens, HeLa, 72 h): 102 nM
GI50 (HepG2; Homo sapiens, HepG2, 72 h): 466 nM
GI50 (LNCap; Homo sapiens, LNCaP, 72 h): 44.3 nM
GI50 (PANC1; Homo sapiens, PANC-1, 72 h): 87.5 nM
GI50 (Non EWS cells; 72 h): 96.9 nM
GI50 (HS68; Homo sapiens, Hs68, fibroblast, non-tumor control): 33.6 nM
AUC HS68 (HS68; [4]): 16245
AUC JR1 (JR1; [4]): 8535
GI50 (JR1; embryonal): 14.9 nM
GI50 (RD; Homo sapiens, RD, embryonal): 22.4 nM
AUC RD (RD; [4]): 8367
GI50 (RH30; Rh30, alveolar): 21 nM
AUC RH30 (RH30; [4]): 7413
GI50 (RH41; Homo sapiens, Rh41, alveolar): 24.7 nM
AUC RH41 (RH41; [4]): 9477
GI50 (rhabdomyosarcoma cells): 15 to 25 nM

mithramycin A [MTM, reference compound]
GI50 (TC32; Table 5, 72 hr, read-out: GI50 TC32): 10 nM
GI50 (TC32; Table 6, 72 hr, EWS cells, read-out: GI50 TC32): 10.4 nM
GI50 (PC3 [2]; Table 5, 72 hr, read-out: GI50 PC3): 11 nM
GI50 (PC3 [2]; Table 6, 72 hr, non EWS cells, read-out: GI50 PC3): 11.3 nM
GI50 (TC71): 10.3 nM
GI50 5838: 11.2 nM
GI50 (A673): 9.1 nM
GI50 (RDES): 10.6 nM
GI50 (SK.ES1): 10.2 nM
GI50 (ES3): 12.8 nM
GI50 (ES4): 7.3 nM
GI50 (ES7): 10 nM
GI50 (ES8): 17.4 nM
GI50 (EWS cells): 10.9 nM
GI50 (BL1395; Table 6, 72 hr, lymphocyte origin): 9.9 nM
GI50 (A549; Table 6, 72 hr, non EWS cells): 54 nM
GI50 (DU145; Table 6, 72 hr, non EWS cells): 16.4 nM
GI50 (H460; Table 6, 72 hr, non EWS cells): 6.8 nM
GI50 (Hela; Table 6, 72 hr, non EWS cells): 28.4 nM
GI50 (HepG2; Table 6, 72 hr, hepatic origin): 28.4 nM
GI50 (LNCap; Table 6, 72 hr, non EWS cells): 82.7 nM
GI50 (PANC1; Table 6, 72 hr, non EWS cells): 22.3 nM
GI50 (Non EWS cells; Table 6, 72 hr, average of non EWS cells): 28.9 nM
inhibition of EWS-FLI1 (EWS-FLI1): top inhibitor
clinical trial outcome ([3]; NCI clinical study, Ewing sarcoma patients): terminated early, due to toxicities
therapeutic index ([3]; clinical evaluation, 1960s and 70s): narrow therapeutic index
